Assay results taken from patent US9221875B2, “Amphiphilic peptides for treatment of keratitis” (Agency for Science, Technology and Research, priority 2013, dated 2015).
In brackets after ≈: the same amount, converted by molar mass. Read-outs that look alike come from different tables or passages of the source. Blank lines part the entries; values can stand above or below the compound they belong to. Peptide text beside a SMILES is read from it.

Assays:
[1] = system: C. albicans biofilm; assay: Biofilm biomass assay, crystal violet; format: cell-based, Candida albicans; conditions: 500 mg/L, 24 h
Protocol: The biomass of the biofilms was estimated by a crystal violet staining assay. Briefly, the formed biofilms were first treated with the peptide for 24 h as described above. After aspirating the culture medium, the biofilms were rinsed once with PBS, fixed with methanol for 15 min at room temperature and stained with 100 μL of 0.1% (weight by volume) crystal violet for 10 min. The excess crystal violet dye was removed by rinsing the wells with DI water five times. The dye that is associated with the biofilm was extracted using 100 μL of 33% glacial acetic acid per well, and […] aliquot from each well was transferred to a new 96-well plate for quantification of absorbance at a wavelength of 570 nm using a microplate reader (TECAN, Switzerland). The relative amount of biomass remaining after peptide treatment was expressed as a percentage of the control treated with broth containing 10 vol % of water. Data represented mean±standard deviations of 4 replicates for each concentration.

[2] = system: C. albicans; conditions: 42 h
[3] = system: C. albicans keratitis; assay: Contact lens-associated C. albicans keratitis mouse model
[4] = system: P. aeruginosa; conditions: 18 h
[5] = system: S. epidermidis; conditions: 18 h
[6] = system: C. albicans; assay: In vitro killing kinetics; format: cell-based, Candida albicans
Protocol: The killing kinetics test was performed to evaluate the antimicrobial activities of peptides against C. albicans. Yeast solution was re-suspended in YMB (Difco) to achieve from 10^5 to 10^6 CFU mL^−1. […] Each dilution (20 μL) was plated on agar plate, and incubated 2 days. Surviving colonies were counted after incubation. An untreated inoculum group was used as a negative control. Tests were conducted in triplicates, and the results were presented as killing efficiency (%).

[7] = Stability testing, autoclave and 6 weeks at room temperature, MALDI-TOF MS; format: physicochemical; conditions: 121° C. 15 min, 2 mg/mL, no protection from light
Protocol: Peptides 1 and 2 were dissolved in HPLC-grade water at 2 mg/mL, subjected to a standard steam sterilization autoclave cycle at 121° C. for 15 min, and allowed to stand at room temperature for a period of 6 weeks. The integrity of the peptides was determined by evaluating their molecular weights via MALDI-TOF MS before and after treatment.

[8] = system: S. aureus; conditions: 18 h
[9] = system: 5 microorganisms tested (S. epidermidis, S. aureus, E. coli, P. aeruginosa, C. albicans); assay: Mean MIC over the panel and selectivity index (Example 1); format: cell-based
Protocol: Red blood cells suspension incubated with PBS was used as negative control.

[10] = system: E. coli; conditions: 18 h
[11] = system: F. solani; format: cell-based; conditions: 24 h
Protocol: (§1) The MICs of peptides were determined against the fungi C. albicans (American Type Culture Collection, ATCC) and F. solani (ATCC) by the broth microdilution method. […] F. solani, were cultured on sabouraud dextrose agar plates in incubator at 37° C. To collect conidia following incubation, conidia of F. solani species were harvested and standardized to 1×10^8 spores/ml before performing the experiments. Sabouraud dextrose broth (90 μL) was added to the wells of culture plates. […] The plates were incubated at 37° C. and examined macroscopically after 24 h for the growth of F. solani. Appropriate control wells without any treatment were included in the study. Peptide were considered to be active if the wells appeared clear without any visible growth of F. solani, and the results were expressed as MIC. The assay was performed in four replicates for each concentration.

[12] = system: E. coli; conditions: 18 h; remark: listed apart in the source
[13] = system: C. albicans
[14] = system: S. aureus; conditions: 18 h; remark: listed apart in the source
[15] = system: rabbit red blood cells; format: cell-based; conditions: red cells of rabbit, 1 h
[16] = system: P. aeruginosa; conditions: 18 h; remark: listed apart in the source
[17] = system: C. albicans; format: cell-based, Candida albicans; conditions: 42 h
Protocol: as §1

[18] = system: S. epidermidis; conditions: 18 h; remark: listed apart in the source
[19] = topical eye drops, peptides 3000 mg/L, amphotericin B 1000 mg/L

MIC C. albicans [2]: 2.0 µg/mL (≈ 2.04 µM) | MIC P. aeruginosa [4]: 31.3 µg/mL (≈ 31.9 µM) | MIC S. epidermidis [5]: 2.0 µg/mL (≈ 2.04 µM) | MIC S. aureus [8]: 125 µg/mL (≈ 127 µM) | MIC E. coli [10]: 31.3 µg/mL (≈ 31.9 µM) | MIC F. solani [11]: 31.3 µg/mL (≈ 31.9 µM)
Compound: CC[C@H](C)[C@H](N)C(=O)N[C@@H](CCCCN)C(=O)N[C@H](C(=O)N[C@@H](CCCCN)C(=O)N[C@H](C(=O)N[C@@H](CCCCN)C(=O)N[C@H](C(=O)N[C@@H](CCCCN)C(N)=O)[C@@H](C)CC)[C@@H](C)CC)[C@@H](C)CC [(IKIK)2-NH2] (H-IKIKIKIK-NH2; N-terminus assumed)
biomass of C. albicans biofilm [1]: decreased significantly | fungal cells eradicated from the biofilms compared to the untreated control group ([3]; C. albicans counts in mice cornea, agar plating): ~90% | depth of hyphal invasion into the cornea, PAS histology [3, 19]: reduced the maximal depth of hyphal invasion | resolution of the keratitis infection (eye appearance) [3, 19]: significant resolution of the keratitis infection | clinical scores of mice corneas (slit lamp) ([3]; topical eye drops, peptides 3000 mg/L, amphotericin B 1000 mg/L, P<0.01): significantly lower than that in the control group | time after which most fungi were killed ([6]; at 2×MIC and 4×MIC): 1 h | time after which most fungi were killed ([6]; at MIC): 4 h | molecular weight after autoclaving and 6 weeks at room temperature in water [7]: remained unchanged with no degradation products observed | GM, geometric mean of MIC values for the 5 microorganisms tested [9]: 38.3 µg/mL

MIC E. coli [12]: >500 µg/mL | MIC C. albicans [13]: 500 µg/mL (≈ 482 µM) | MIC S. aureus [14]: >500 µg/mL | MIC P aeruginosa [16]: >500 µg/mL | MIC F. solani [11]: >500 µg/mL | MIC C. albicans [17]: >500 µg/mL | MIC S. epidermidis [18]: >500 µg/mL
Compound: CC[C@H](C)[C@H](N)C(=O)N[C@H](C(=O)N[C@@H](CCCNC(=N)N)C(=O)N[C@@H](CCCCN)C(=O)N[C@H](C(=O)N[C@H](C(=O)N[C@@H](CCCNC(=N)N)C(=O)N[C@@H](CCCCN)C(N)=O)[C@@H](C)CC)[C@@H](C)CC)[C@@H](C)CC [Control-all L] (H-IIRKIIRK-NH2; N-terminus assumed)
HC10, haemolysis concentration 10%: lowest peptide concentration that induces ≧10% haemolysis [15]: >2000 mg/L
